Data set [1] deals with P. aeruginosa (ATCC 15442). The data set can be described thus: MIC and MBC, microtiter plate technique. The format is cell-based. Particulars: ATCC15442, Pseudomonas aeruginosa; for MIC: 24 h, resazurin; for MBC: TTC. (In general: Resazurin is reduced to fluorescent resorufin, in cell work by metabolically active cells.)
The subject of a further data set is E. coli R4 (ATCC 39543). The data set can be described thus: MIC and MBC, microtiter plate technique. The data set is classed as cell-based. Particulars: Escherichia coli; for MBC: ATCC39543; for MIC: ATCC39543, 24 h.
In the next data set the test system is E. coli R2 (ATCC 39544). The data set can be described thus: MIC and MBC, microtiter plate technique. The format is cell-based. Particulars: Escherichia coli; for MBC: ATCC39544; for MIC: ATCC39544, 24 h.
A further data set has as its system E. cloacae (ATCC 49141). Kind of data set: MIC and MBC, microtiter plate technique. The format is cell-based. Particulars: ATCC49141, Enterobacter cloacae; for MIC: 24 h, resazurin; for MBC: TTC.
Data set [2] addresses T1, mushroom tyrosinase (mTYR) (Agaricus bisporus, UniProt C7FF04).
T1 construct: purchased Sigma-Aldrich (Poznan, Poland); host or cells: Agaricus bisporus (extracted natural enzyme)
Kind of data set: Tyrosinase assay with L-DOPA as substrate (absorbance at 475 nm). The format is biochemical. Particulars: 100 µM compound. From the text:
Tyrosinase (Tyr) extracted from Agaricus bisporus (mushroom tyrosinase, mTYR) is commonly used as a model enzyme for human Tyr due to its high purity, stability, and commercial availability. It is frequently used in the selection of TYR inhibitors. Following established literature protocols, L-tyrosine and L-DOPA, which serve as substrates for monophenol and diphenol oxidation, respectively, were used to assess the tyrosinase inhibitory activity of synthesized target compounds [21].
Tyrosinase (Tyr) activity was measured using L-DOPA as substrate and phosphate buffer solution (PBS) as blank control, following the method described by Min He et al. (2022) with an ultraviolet spectrophotometer (Carry-300, Agilent Life Sciences and Chemical Analysis, Santa Clara, CA, USA). […] Before the experiment, 2.9 mL of PBS and 0.1 mL of DMSO were used to account for the influence of the background solvent. The inhibitor solution (100 µL), substrate solution (2.8 mL), and Tyr solution (100 µL) were then added to a quartz colorimetric cuvette. After a one-minute mixing period, the absorption spectra of the mixture were continuously recorded at 475 nm using the UV spectrophotometer (Carry-300) for 5 min over a period of every 30 s. The tyrosinase inhibition rate was calculated as follows:Relative enzyme activity (%) = (A1 − A2)/A1 × 100
A1 = Absorbance of L-DOPA and inhibitor.
A2 = Absorbance of L-DOPA, inhibitor, and tyrosinase.

In data set [3] the test system is A. baumannii (ATCC 17978). Kind of data set: MIC and MBC, microtiter plate technique. Particulars: ATCC17978, Acinetobacter baumannii; for MIC: 24 h, resazurin; for MBC: TTC. The data set is classed as cell-based.
For the next data set, the system named is S. aureus (ATCC 23235). Kind of data set: microbe, parasite or virus in culture. The format is cell-based. Particulars: Staphylococcus aureus; for MBC: ATCC23235; for MIC: ATCC23235, 24 h.
The next data set has as its system E. coli R3 (ATCC 11775). Kind of data set: MIC and MBC, microtiter plate technique. The data set is classed as cell-based. Particulars: Escherichia coli; for MIC: ATCC11775, 24 h, resazurin; for MBC: ATCC11775, TTC.
The next data set is described as follows: MTT cytotoxicity assay. The data set is classed as cell-based. Particulars: mouse, BALB/c3T3 mouse embryonic fibroblast cells; 1.0 µM, 24 h; read-out: cell viability. The procedure: Following the completion of MIC and MBC assays on the analyzed bacterial strains, and subsequent treatment with Fpg protein modified by peptidomimetics along with selected antibiotics, a further MTT assay was conducted to evaluate the cytotoxicity of the compounds employing the BALB/c3T3 mouse embryonic fibroblast cell line (Figure 10).
BALB/c3T3 mouse embryonic fibroblast cells were exposed to peptidomimetics across concentrations ranging from 0.5 µM to 3.5 µM and incubated for a duration of 24 h. […] The highest concentrations (2.5 µM and 3.5 µM) inhibited cell viability, which was reduced to 20.2% and 1.0%, respectively (Figure 10 and Figure S40 in the Supplementary Materials).
The cytotoxic effects of aldehyde 1 and peptidomimetics 5a–r on BALB/c3T3 mouse fibroblast cells were assessed utilizing the MTT assay following a 24 h incubation period across five different concentrations (0.5, 1.0, 1.5, 2.5, and 3.5 µM). The MTT assay is predicated upon the capacity of mitochondrial dehydrogenase enzymes to convert the water-soluble tetrazolium salt, 3-([…])-2,5-diphenyltetrazolium bromide (MTT), into an insoluble formazan product, manifesting as dark blue crystals. These formazan crystals are then dissolved in DMSO or isopropanol, forming a colored solution whose intensity is measured spectrophotometrically within the wavelength range of 492–570 nm. The amount of MTT reduced corresponds to the oxidative activity of the mitochondria, which is directly proportional to the number of metabolically active cells in the population under defined experimental conditions. The MTT assay can also be used to assess cell viability in non-dividing metabolically active cells. It is one of the most widely used methods to assess cytotoxic activity and is recommended by international standards organizations as a reference method.
For orientation: Tetrazolium assays rely on reduction of a dye to a coloured formazan, in cell work by metabolically active cells.

For a further data set, the system named is E. coli K12 (ATCC 25404). Kind of data set: MIC and MBC, microtiter plate technique. The data set is classed as cell-based. Particulars: Escherichia coli; for MBC: ATCC25404; for MIC: ATCC25404, 24 h.

Converted amounts (≈) assume the structure as drawn.

T1 sequence (C7FF04 1-392 limits assumed): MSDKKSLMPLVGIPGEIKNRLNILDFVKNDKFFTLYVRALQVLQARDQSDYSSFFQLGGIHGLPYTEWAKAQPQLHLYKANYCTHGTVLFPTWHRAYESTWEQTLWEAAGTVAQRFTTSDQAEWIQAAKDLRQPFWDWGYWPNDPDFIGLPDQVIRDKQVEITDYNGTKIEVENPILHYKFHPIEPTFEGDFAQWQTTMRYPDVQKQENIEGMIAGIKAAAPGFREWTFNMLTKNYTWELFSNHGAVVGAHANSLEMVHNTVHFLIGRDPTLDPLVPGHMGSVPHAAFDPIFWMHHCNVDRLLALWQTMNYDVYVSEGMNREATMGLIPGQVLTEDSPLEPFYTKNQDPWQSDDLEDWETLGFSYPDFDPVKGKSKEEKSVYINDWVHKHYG

What is called inhibition is the drop in the measured response relative to a control, in per cent. A low value points to little suppression. Usually viability stands for a read-out of living cells in per cent, often relative to untreated cells. With `COc1ccc(CN(C(=O)Cc2ccccc2)C(C(=O)NCc2ccc(F)cc2)c2ccc(O)c(O)c2)cc1` (stereo not shown) [Compound 5c, 2-(3,4-dihydroxyphenyl)-N-(4-fluorobenzyl)-2-(N-(4-methoxybenzyl)-2-phenylacetamido)-acetamide], the MIC in data set [1] came out at 1.04 µM (≈ 0.55 µg/mL); in the data set with E. coli R4 (ATCC 39543) it was 1.98 µM (≈ 1.05 µg/mL); in the data set with E. coli R2 (ATCC 39544), 1 µM (≈ 0.529 µg/mL); in the data set on E. cloacae (ATCC 49141) it was 1.08 µM (≈ 0.571 µg/mL); in [3] it was 0.84 µM (≈ 0.444 µg/mL); in the data set on S. aureus (ATCC 23235) it was 0.96 µM (≈ 0.507 µg/mL). Besides, the values for the MIC against E. coli R3 (ATCC 11775) and in the data set with E. coli K12 (ATCC 25404) were 1.61 µM (≈ 0.851 µg/mL) and 0.45 µM (≈ 0.238 µg/mL), respectively. Also, the MBC in data set [1] turned out to be 1.09 µM (≈ 0.576 µg/mL); against E. coli R4 (ATCC 39543), 2.36 µM (≈ 1.25 µg/mL); against E. coli R2 (ATCC 39544) it was 1.04 µM (≈ 0.55 µg/mL); against E. cloacae (ATCC 49141), 1.11 µM (≈ 0.587 µg/mL); in data set [3] it was 0.94 µM (≈ 0.497 µg/mL); with S. aureus (ATCC 23235), 1 µM (≈ 0.529 µg/mL). Also, the figures for the MBC with E. coli R3 (ATCC 11775) and in the data set on E. coli K12 (ATCC 25404) were 1.79 µM (≈ 0.946 µg/mL) and 0.66 µM (≈ 0.349 µg/mL), respectively. Moreover, in data set [2], the inhibition at 100 µM is under 10%. Besides, the viability at 24 h, 1 µM in “MTT cytotoxicity assay” turned out to be 60.2%.
For the molecule `CCCCN(C(=O)Cc1ccccc1)C(C(=O)NCc1ccc(OC)cc1)c1ccc(O)c(O)c1` (stereo not shown) [Compound 5h], the MIC in [1] amounted to 0.69 µM (≈ 0.329 µg/mL); in the data set on E. coli R4 (ATCC 39543) it was 1.36 µM (≈ 0.648 µg/mL); with E. coli R2 (ATCC 39544), 0.86 µM (≈ 0.41 µg/mL); with E. cloacae (ATCC 49141) it was 0.74 µM (≈ 0.353 µg/mL); in [3], 0.73 µM (≈ 0.348 µg/mL); against S. aureus (ATCC 23235), 0.67 µM (≈ 0.319 µg/mL). The MIC in the data set with E. coli R3 (ATCC 11775) amounted to 1.07 µM (≈ 0.51 µg/mL); in the data set on E. coli K12 (ATCC 25404), 0.25 µM (≈ 0.119 µg/mL). For the same molecule, the MBC in data set [1] is 0.72 µM (≈ 0.343 µg/mL); in the data set with E. coli R4 (ATCC 39543), 1.42 µM (≈ 0.677 µg/mL); in the data set on E. coli R2 (ATCC 39544) it was 1.07 µM (≈ 0.51 µg/mL); with E. cloacae (ATCC 49141) it was 0.73 µM (≈ 0.348 µg/mL); in [3], 0.75 µM (≈ 0.357 µg/mL); in the data set with S. aureus (ATCC 23235) it was 0.67 µM (≈ 0.319 µg/mL). Besides, the MBC in the data set on E. coli R3 (ATCC 11775) is 1.19 µM (≈ 0.567 µg/mL); against E. coli K12 (ATCC 25404), 0.71 µM (≈ 0.338 µg/mL). The molecule further yielded an inhibition at 100 µM in data set [2] of under 10%.
As for `CCCCN(C(=O)Cc1ccccc1)C(C(=O)NCc1ccccc1)c1ccc(O)c(O)c1` (stereo not shown) [Compound 5g, N-benzyl-2-(N-butyl-2-phenylacetamido)-2-(3,4-dihydroxyphenyl)acetamide], the MIC in [1] is 0.7 µM (≈ 0.313 µg/mL); with E. coli R4 (ATCC 39543) it was 1.5 µM (≈ 0.67 µg/mL); with E. coli R2 (ATCC 39544), 0.94 µM (≈ 0.42 µg/mL); against E. cloacae (ATCC 49141), 0.72 µM (≈ 0.322 µg/mL); in data set [3] it was 0.79 µM (≈ 0.353 µg/mL); in the data set with S. aureus (ATCC 23235) it was 0.73 µM (≈ 0.326 µg/mL). The MIC in the data set on E. coli R3 (ATCC 11775) stood at 1.02 µM (≈ 0.455 µg/mL); in the data set on E. coli K12 (ATCC 25404), 0.42 µM (≈ 0.188 µg/mL). Besides, the MBC in data set [1] was 0.78 µM (≈ 0.348 µg/mL); against E. coli R4 (ATCC 39543) it was 1.41 µM (≈ 0.63 µg/mL); against E. coli R2 (ATCC 39544), 1.23 µM (≈ 0.549 µg/mL); in the data set on E. cloacae (ATCC 49141), 0.77 µM (≈ 0.344 µg/mL); in data set [3], 0.82 µM (≈ 0.366 µg/mL); against S. aureus (ATCC 23235) it was 0.8 µM (≈ 0.357 µg/mL). Further, the MBC against E. coli R3 (ATCC 11775) is 1.23 µM (≈ 0.549 µg/mL); against E. coli K12 (ATCC 25404), 0.71 µM (≈ 0.317 µg/mL). This molecule returned an inhibition at 100 µM in [2] of over 10%.

Values taken from PMC11855086, “Synthesis, Antimicrobial Activity, and Tyrosinase Inhibition by Multifunctional 3,4-Dihydroxy-Phenyl Peptidomimetics” (International Journal of Molecular Sciences, 2025).
